Data published in the NIST ThermoML archive (doi:10.1021/acs.jced.9b00248).

Test: mn = molality of the nth substance listed, in mol/kg
Conditions: Liquid; for viscosity: Vibrating wire viscometry; for mass density: Vibrating tube method

[Ca+2].[Cl-].[Cl-] [calcium chloride] + O
Conditions | mass density [kg/m3] | viscosity [mPa·s]
274.75 K, 1300 kPa, m1 = 1 | – | 2.142
274.75 K, 49900 kPa, m1 = 1 | – | 2.117
274.75 K, 99700 kPa, m1 = 1 | – | 2.096
274.87 K, 1270 kPa, m1 = 1 | 1088.12 | –
274.87 K, 15180 kPa, m1 = 1 | 1094.18 | –
274.87 K, 30070 kPa, m1 = 1 | 1100.27 | –
274.87 K, 49880 kPa, m1 = 1 | 1108.27 | –
274.87 K, 69750 kPa, m1 = 1 | 1115.89 | –
274.87 K, 99730 kPa, m1 = 1 | 1126.88 | –
274.98 K, 1310 kPa, m1 = 2.5 | 1201.94 | –
274.98 K, 15210 kPa, m1 = 2.5 | 1207.74 | –
274.98 K, 30100 kPa, m1 = 2.5 | 1212.77 | –
274.98 K, 49930 kPa, m1 = 2.5 | 1219.37 | –
274.98 K, 69770 kPa, m1 = 2.5 | 1225.9 | –
274.98 K, 99750 kPa, m1 = 2.5 | 1235.53 | –
296.18 K, 1280 kPa, m1 = 1 | 1082.39 | –
296.18 K, 15170 kPa, m1 = 1 | 1087.93 | –
296.18 K, 30070 kPa, m1 = 1 | 1093.68 | –
296.18 K, 49900 kPa, m1 = 1 | 1101.19 | –
296.18 K, 69750 kPa, m1 = 1 | 1108.4 | –
296.18 K, 99730 kPa, m1 = 1 | 1118.84 | –
296.21 K, 30100 kPa, m1 = 1 | – | 1.224
296.21 K, 99700 kPa, m1 = 1 | – | 1.237
296.22 K, 1310 kPa, m1 = 2.5 | 1192.77 | –
296.22 K, 15240 kPa, m1 = 2.5 | 1197.73 | –
296.22 K, 30130 kPa, m1 = 2.5 | 1202.82 | –
296.22 K, 49960 kPa, m1 = 2.5 | 1209.46 | –
296.22 K, 69780 kPa, m1 = 2.5 | 1215.91 | –
296.22 K, 99740 kPa, m1 = 2.5 | 1225.32 | –
323.23 K, 1280 kPa, m1 = 2.5 | 1179.3 | –
323.23 K, 15180 kPa, m1 = 2.5 | 1184.63 | –
323.23 K, 30060 kPa, m1 = 2.5 | 1189.89 | –
323.23 K, 49910 kPa, m1 = 2.5 | 1196.52 | –
323.23 K, 69770 kPa, m1 = 2.5 | 1202.94 | –
323.23 K, 99730 kPa, m1 = 2.5 | 1212.15 | –
323.31 K, 1240 kPa, m1 = 1 | 1071.6 | –
323.31 K, 15190 kPa, m1 = 1 | 1077.19 | –
323.31 K, 30070 kPa, m1 = 1 | 1082.81 | –
323.31 K, 49880 kPa, m1 = 1 | 1090.06 | –
323.31 K, 69760 kPa, m1 = 1 | 1097.04 | –
323.31 K, 99750 kPa, m1 = 1 | 1107.2 | –
323.4 K, 1300 kPa, m1 = 1 | – | 0.736
323.4 K, 15200 kPa, m1 = 1 | – | 0.734
323.4 K, 30100 kPa, m1 = 1 | – | 0.732
323.4 K, 49900 kPa, m1 = 1 | – | 0.728
323.4 K, 69800 kPa, m1 = 1 | – | 0.725
348.19 K, 1320 kPa, m1 = 2.5 | 1165.84 | –
348.19 K, 15220 kPa, m1 = 2.5 | 1170.56 | –
348.19 K, 30110 kPa, m1 = 2.5 | 1175.97 | –
348.19 K, 49950 kPa, m1 = 2.5 | 1182.84 | –
348.19 K, 69790 kPa, m1 = 2.5 | 1189.55 | –
348.19 K, 99790 kPa, m1 = 2.5 | 1199.01 | –
348.2 K, 1300 kPa, m1 = 1 | 1058.82 | –
348.2 K, 15220 kPa, m1 = 1 | 1064.57 | –
348.2 K, 30100 kPa, m1 = 1 | 1070.33 | –
348.2 K, 49930 kPa, m1 = 1 | 1077.65 | –
348.2 K, 69790 kPa, m1 = 1 | 1084.72 | –
348.2 K, 99770 kPa, m1 = 1 | 1094.89 | –
373.2 K, 1350 kPa, m1 = 2.5 | 1151.73 | –
373.2 K, 15250 kPa, m1 = 2.5 | 1156.76 | –
373.2 K, 30140 kPa, m1 = 2.5 | 1161.97 | –
373.2 K, 49960 kPa, m1 = 2.5 | 1168.74 | –
373.2 K, 69820 kPa, m1 = 2.5 | 1175.25 | –
373.2 K, 99780 kPa, m1 = 2.5 | 1184.69 | –
373.22 K, 1320 kPa, m1 = 1 | 1042.78 | –
373.22 K, 15230 kPa, m1 = 1 | 1048.82 | –
373.22 K, 30130 kPa, m1 = 1 | 1054.88 | –
373.22 K, 49940 kPa, m1 = 1 | 1062.61 | –
373.22 K, 69790 kPa, m1 = 1 | 1070 | –
373.22 K, 99790 kPa, m1 = 1 | 1080.38 | –
373.45 K, 30100 kPa, m1 = 1 | – | 0.393
373.45 K, 49900 kPa, m1 = 1 | – | 0.399
398.26 K, 1360 kPa, m1 = 2.5 | 1134.93 | –
398.26 K, 15270 kPa, m1 = 2.5 | 1140.45 | –
398.26 K, 30160 kPa, m1 = 2.5 | 1146.01 | –
398.26 K, 49970 kPa, m1 = 2.5 | 1153.12 | –
398.26 K, 69820 kPa, m1 = 2.5 | 1159.89 | –
398.26 K, 99800 kPa, m1 = 2.5 | 1169.63 | –
398.28 K, 1320 kPa, m1 = 1 | 1024.8 | –
398.28 K, 15230 kPa, m1 = 1 | 1031.2 | –
398.28 K, 30120 kPa, m1 = 1 | 1037.76 | –
398.28 K, 49940 kPa, m1 = 1 | 1045.99 | –
398.28 K, 69780 kPa, m1 = 1 | 1053.7 | –
398.28 K, 99790 kPa, m1 = 1 | 1064.71 | –
398.33 K, 15200 kPa, m1 = 1 | – | 0.31
398.33 K, 30100 kPa, m1 = 1 | – | 0.315
398.33 K, 49900 kPa, m1 = 1 | – | 0.321
423.46 K, 1400 kPa, m1 = 1 | – | 0.255
423.46 K, 50000 kPa, m1 = 1 | – | 0.266
423.46 K, 69800 kPa, m1 = 1 | – | 0.272
423.6 K, 1340 kPa, m1 = 1 | 1004.42 | –
423.6 K, 1360 kPa, m1 = 2.5 | 1116.33 | –
423.6 K, 15250 kPa, m1 = 1 | 1011.3 | –
423.6 K, 15260 kPa, m1 = 2.5 | 1122.22 | –
423.6 K, 30150 kPa, m1 = 1 | 1018.56 | –
423.6 K, 30150 kPa, m1 = 2.5 | 1128.37 | –
423.6 K, 49950 kPa, m1 = 1 | 1027.46 | –
423.6 K, 49980 kPa, m1 = 2.5 | 1136 | –
423.6 K, 69810 kPa, m1 = 2.5 | 1143.19 | –
423.6 K, 69820 kPa, m1 = 1 | 1035.71 | –
423.6 K, 99790 kPa, m1 = 2.5 | 1153.51 | –
423.6 K, 99810 kPa, m1 = 1 | 1047.43 | –
448.43 K, 1400 kPa, m1 = 1 | – | 0.226
448.43 K, 69800 kPa, m1 = 1 | – | 0.235
448.83 K, 1360 kPa, m1 = 2.5 | 1096.34 | –
448.83 K, 15250 kPa, m1 = 2.5 | 1102.89 | –
448.83 K, 30150 kPa, m1 = 2.5 | 1109.65 | –
448.83 K, 49970 kPa, m1 = 2.5 | 1117.84 | –
448.83 K, 69820 kPa, m1 = 2.5 | 1125.62 | –
448.83 K, 99830 kPa, m1 = 2.5 | 1136.51 | –
448.84 K, 1360 kPa, m1 = 1 | 982.19 | –
448.84 K, 15270 kPa, m1 = 1 | 989.78 | –
448.84 K, 30160 kPa, m1 = 1 | 997.78 | –
448.84 K, 49980 kPa, m1 = 1 | 1007.39 | –
448.84 K, 69830 kPa, m1 = 1 | 1016.54 | –
448.84 K, 99810 kPa, m1 = 1 | 1029.19 | –
